Columns and labels:
[1] = test system: neuroleptic-induced catatonia; experiment: Inhibition of neuroleptic (prochlorperazine)-induced catatonia (preventive); assay type: in vivo, rat (male, OFA strain); conditions: for activity relative to amantadine, neuroleptic-induced catatonia: times more active than amantadine
Description: The blocking of dopaminergic receptors by neuroleptics in the extra-pyramidal system induces catatonia in the rat. Catatonia is differentiated from sedative properties by means of the test used hereabove for reserpine-induced catatonia. The same system of scoring was also employed in the present case.
An oral dose of the compound to be studied in aqueous solution was administered to batches of 10 male rats of the OFA strain weighing about 150 to 200 g.
Three hours after the injection of this latter compound, catatonia was measured. An identical trial was also carried out with control animals which received prochlorperazine but none of the compounds under study.
The scoring system used was that given hereabove for Table I.

[2] = test system: reserpine-induced catatonia; experiment: Inhibition of reserpine-induced catatonia (preventive, oral compound 30 min before reserpine); assay type: in vivo, rat (male, OFA strain)
Description: After sufficient doses of reserpine have been administered to the rat, a series of symptoms occur, more particularly ptosis, catatonia and a drop in central temperature. These symptoms are caused by the depletion of the intragranular reserve pool of biogenetic amines at the synaptic terminals.
An oral dose of the compound to be studied in aqueous solution was administered to batches of 10 male rats of the OFA strain weighing about 150 to 200 g. Thirty minutes later a dose of 5 mg/kg of reserpine was given by intraperitoneal route. Three hours after the injection of reserpine, the animals were suspended by the four paws to a horizontally stretched wire fixed at 15 cm from the ground. The catatonia animals were those which maintained the position so given for at least 30 seconds. […] The maximum score was therefore 10 per batch. An identical trial was undertaken with control animals which received reserpine but none of the compounds being studied.

`CCCC(N)(CC)CC(C)C` (stereo not drawn) [Compound 3, 1-Ethyl-1-isobutyl-n-butylamine] was tested, and the “Inhibition of the neuroleptic-induced catatonia” value ([1]; 20 mg/kg oral) was 3 (represents 70 to 80% inhibition of catatonia in comparison with the controls).

For `CCCC(N)(CCC)CC(C)C` [Compound 5, 1-n-Propyl-1-isobutyl-n-butylamine], the “Inhibition of reserpine-induced catatonia” value ([2]; 20 mg/kg oral) was 2 (represents 50% inhibition of catatonia in comparison with the controls) and the “activity relative to amantadine, neuroleptic-induced catatonia” value [1] was “five times more active”.

`CCCCC(C)(N)CC(C)C` (stereo not drawn) [Compound 8, 1-Methyl-1-isobutyl-n-pentylamine] was tested, and the “activity relative to amantadine, neuroleptic-induced catatonia” value [1] was “twice as active”.

With `CCCCC(C)CC(C)(C)N` (stereo not drawn) [Compound 13, 1,1,3-Trimethyl-n-heptylamine] the “Inhibition of reserpine-induced catatonia” value ([2]; 25 mg/kg oral) was 1 (represents 20 to 30% inhibition of catatonia in comparison with the controls) and the “Inhibition of the neuroleptic-induced catatonia” value ([1]; 50 mg/kg oral) was 1 (represents 20 to 30% inhibition of catatonia in comparison with the controls).

`CCCC(N)(CCC)CC(C)C` [Compound 19, 1-n-Propyl-1-isobutyl-n-butylamine] was tested, and the “Inhibition of reserpine-induced catatonia” value ([2]; 6 mg/kg oral) was 3 (represents 70 to 80% inhibition of catatonia in comparison with the controls) and the “Inhibition of the neuroleptic-induced catatonia” value ([1]; 6 mg/kg oral) was 3 (represents 70 to 80% inhibition of catatonia in comparison with the controls).

In the case of `CCCC(CCC)(CCC)N(C)C` [Compound 28, N,N-Dimethyl-1,1-di-n-propyl-n-butylamine], the “Inhibition of reserpine-induced catatonia” value ([2]; 6 mg/kg oral) is reported as 4 (represents 100% inhibition of catatonia in comparison with the controls), the “Inhibition of the neuroleptic-induced catatonia” value ([1]; 3 mg/kg oral) is reported as 2 (represents 50% inhibition of catatonia in comparison with the controls) and the “Inhibition of the neuroleptic-induced catatonia” value ([1]; 6 mg/kg oral) is reported as 4 (represents 100% inhibition of catatonia in comparison with the controls).

For `CCCC(CCC)(CC(C)C)NC` [Compound 31, N-Methyl-1-n-propyl-1-isobutyl-n-butylamine], the “Inhibition of reserpine-induced catatonia” value ([2]; 6.5 mg/kg oral) was 3 (represents 70 to 80% inhibition of catatonia in comparison with the controls) and the “Inhibition of the neuroleptic-induced catatonia” value ([1]; 6.5 mg/kg oral) was 4 (represents 100% inhibition of catatonia in comparison with the controls).

`CCCC(CCC)(CC(C)C)N(C)C` [Compound 37, N,N-Dimethyl-1-n-propyl-1-isobutyl-n-butylamine] was tested, and the “Inhibition of reserpine-induced catatonia” value ([2]; 6.5 mg/kg oral) was 3 (represents 70 to 80% inhibition of catatonia in comparison with the controls) and the “Inhibition of the neuroleptic-induced catatonia” value ([1]; 6.5 mg/kg oral) was 2 (represents 50% inhibition of catatonia in comparison with the controls).

In the case of `CCCC(CCC)(CCC)N(C)CC` [Compound 38, N-Methyl-N-ethyl-1,1-di-n-propyl-n-butylamine], the “Inhibition of reserpine-induced catatonia” value ([2]; 6.5 mg/kg oral) is reported as 2 (represents 50% inhibition of catatonia in comparison with the controls) and the “Inhibition of the neuroleptic-induced catatonia” value ([1]; 6.5 mg/kg oral) is reported as 2 (represents 50% inhibition of catatonia in comparison with the controls).

In the case of `C#CCN(CC#C)C(CCC)(CCC)CCC` [Compound 39, N,N-Dipropargyl-1,1-di-n-propyl-n-butylamine], the “Inhibition of reserpine-induced catatonia” value ([2]; 15 mg/kg oral) is reported as 2 (represents 50% inhibition of catatonia in comparison with the controls).

In the case of `CCCC(CCC)(CCC)N(CCO)CCO` [Compound 44, N,N-bis-(2-Hydroxyethyl)-1,1-di-n-propyl-n-butylamine], the “Inhibition of reserpine-induced catatonia” value ([2]; 15 mg/kg oral) is reported as 1 (represents 20 to 30% inhibition of catatonia in comparison with the controls) and the “Inhibition of the neuroleptic-induced catatonia” value ([1]; 15 mg/kg oral) is reported as 1 (represents 20 to 30% inhibition of catatonia in comparison with the controls).

With `CCCNC(CCC)(CCC)CCC` [Compound 47, N-n-propyl-1,1-di-n-propyl-n-butylamine] the “Inhibition of the neuroleptic-induced catatonia” value ([1]; 6.5 mg/kg oral) was 2 (represents 50% inhibition of catatonia in comparison with the controls).

Reference: patent publication US4201725A, “Secondary amines” (priority 1974, dated 1980)
